Experimental data reported in publication PMC11766267 (International Journal of Molecular Sciences, 2025).
Values joined by “and” are separate entries in the source; they are usually repeats but may differ in a detail not shown here. Identical values can stand only once. Like-named read-outs stand apart in the source and are kept apart here.

Experiments:
[1] = system: HCT-116, MDA-MB-231, HeLa, and MCF-7; experiment: MTT cytotoxicity assay, ranges stated over several cell lines; type: cell-based; settings: Homo sapiens, range over the compounds named
Description: Subsequently, 100 µL of dimethyl sulfoxide was introduced to dissolve the insoluble formazan.

[2] = target: T1, aromatase (CYP19A, EC 1.14.14.14) (Homo sapiens, UniProt P11511); experiment: biochemical; settings: individual Data 1-3
T1 construct: Microsomal samples were isolated from tissue using the Microsome Isolation Kit; tissue BioVision K983-100; host or cells: microsomes from an unnamed tissue
T1 sequence (P11511 1-503): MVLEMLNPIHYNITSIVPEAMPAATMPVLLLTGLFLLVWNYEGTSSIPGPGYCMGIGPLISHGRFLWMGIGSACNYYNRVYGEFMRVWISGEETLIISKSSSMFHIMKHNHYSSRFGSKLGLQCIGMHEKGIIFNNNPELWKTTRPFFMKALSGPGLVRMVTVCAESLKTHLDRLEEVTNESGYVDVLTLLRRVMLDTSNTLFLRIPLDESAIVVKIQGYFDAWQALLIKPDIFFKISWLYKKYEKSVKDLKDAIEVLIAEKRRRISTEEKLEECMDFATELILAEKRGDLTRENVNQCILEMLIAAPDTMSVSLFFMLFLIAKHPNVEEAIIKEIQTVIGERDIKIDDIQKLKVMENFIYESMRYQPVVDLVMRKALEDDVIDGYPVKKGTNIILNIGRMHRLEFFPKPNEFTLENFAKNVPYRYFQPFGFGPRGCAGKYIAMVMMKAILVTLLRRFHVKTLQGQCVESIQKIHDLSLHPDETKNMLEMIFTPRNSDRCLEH
Description: In vitro aromatase assay was performed using the BioVision Aromatase Activity Assay Kit (Catalog # K983-100; BioVision, Milpitas, CA, USA). Microsomal samples were isolated from tissue using the Microsome Isolation Kit (Cat. #K249; BioVision, Milpitas, CA, USA). A standard curve was established by diluting the Fluorescence Standard provided in the kit to create a 0.5 pmole/µL solution, followed by setting up a series of standards in a white 96-well plate, adjusting the total volume to 100 µL with aromatase assay buffer. For each reaction well, a 2X concentrated mix was prepared by adding 2–48 µL of the microsomal sample and 2 µL of the NADPH generating system, bringing the final volume to 50 µL with aromatase assay buffer. Background controls (no enzyme) and positive controls (with recombinant aromatase) were included. […] After a 10 min incubation at 37 °C, 30 µL of the substrate/NADP+ mixture was added to each well, and fluorescence was measured immediately in kinetic mode for 60 min at 37 °C. Finally, the change in fluorescence was calculated to determine the specific activity of aromatase using the formula provided in the kit protocol.

MCF-7 = experiment: In vitro anti-estrogenic activity assay, MCF-7
MCF-7a = experiment: In vitro anti-estrogenic activity assay, MCF-7a
EGFR = EGFR (Homo sapiens, UniProt P00533); experiment: In vitro protein kinase inhibition assay (ELISA kit), EGFR
HER2 = HER2 (Homo sapiens, UniProt P04626); experiment: In vitro protein kinase inhibition assay (ELISA kit), HER2
CDK2 = CDK2 (Homo sapiens, UniProt P24941); experiment: In vitro protein kinase inhibition assay (ELISA kit), CDK2
VEGFR-2 = VEGFR-2 (Homo sapiens, UniProt P35968); experiment: In vitro protein kinase inhibition assay (ELISA kit), VEGFR-2
[3] = cell count relative to the control (17β-E2)

Sequence of EGFR (P00533 25-1210): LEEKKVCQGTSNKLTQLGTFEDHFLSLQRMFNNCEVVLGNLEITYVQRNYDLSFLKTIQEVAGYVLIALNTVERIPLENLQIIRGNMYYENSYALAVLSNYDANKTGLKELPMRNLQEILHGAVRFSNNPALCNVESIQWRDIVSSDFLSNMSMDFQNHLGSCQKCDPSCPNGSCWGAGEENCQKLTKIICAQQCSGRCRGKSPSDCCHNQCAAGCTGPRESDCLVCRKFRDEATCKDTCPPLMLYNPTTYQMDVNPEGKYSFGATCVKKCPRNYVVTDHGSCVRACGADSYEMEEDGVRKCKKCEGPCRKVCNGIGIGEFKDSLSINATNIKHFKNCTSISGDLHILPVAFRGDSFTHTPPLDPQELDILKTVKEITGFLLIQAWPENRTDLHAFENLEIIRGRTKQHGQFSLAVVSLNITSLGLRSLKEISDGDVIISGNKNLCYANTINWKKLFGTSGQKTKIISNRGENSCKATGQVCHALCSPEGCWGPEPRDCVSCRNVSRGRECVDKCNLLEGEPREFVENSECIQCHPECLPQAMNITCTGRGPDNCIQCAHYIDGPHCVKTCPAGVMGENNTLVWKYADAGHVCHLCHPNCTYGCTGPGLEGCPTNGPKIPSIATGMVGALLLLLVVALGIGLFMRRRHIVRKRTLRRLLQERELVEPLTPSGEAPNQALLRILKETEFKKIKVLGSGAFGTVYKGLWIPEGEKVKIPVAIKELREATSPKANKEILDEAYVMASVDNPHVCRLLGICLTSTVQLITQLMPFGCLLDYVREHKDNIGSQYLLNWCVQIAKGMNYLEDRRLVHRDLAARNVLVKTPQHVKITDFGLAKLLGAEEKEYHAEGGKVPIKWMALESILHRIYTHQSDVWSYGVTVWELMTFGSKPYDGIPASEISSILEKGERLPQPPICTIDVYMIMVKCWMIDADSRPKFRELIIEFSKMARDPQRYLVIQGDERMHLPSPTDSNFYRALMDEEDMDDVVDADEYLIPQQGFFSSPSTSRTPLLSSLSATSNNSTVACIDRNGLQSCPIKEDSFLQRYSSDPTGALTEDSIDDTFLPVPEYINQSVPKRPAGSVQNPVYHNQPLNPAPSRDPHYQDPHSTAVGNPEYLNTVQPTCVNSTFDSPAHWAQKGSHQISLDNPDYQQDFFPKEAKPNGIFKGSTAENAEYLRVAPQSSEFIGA
Sequence of VEGFR-2 (P35968 20-1356): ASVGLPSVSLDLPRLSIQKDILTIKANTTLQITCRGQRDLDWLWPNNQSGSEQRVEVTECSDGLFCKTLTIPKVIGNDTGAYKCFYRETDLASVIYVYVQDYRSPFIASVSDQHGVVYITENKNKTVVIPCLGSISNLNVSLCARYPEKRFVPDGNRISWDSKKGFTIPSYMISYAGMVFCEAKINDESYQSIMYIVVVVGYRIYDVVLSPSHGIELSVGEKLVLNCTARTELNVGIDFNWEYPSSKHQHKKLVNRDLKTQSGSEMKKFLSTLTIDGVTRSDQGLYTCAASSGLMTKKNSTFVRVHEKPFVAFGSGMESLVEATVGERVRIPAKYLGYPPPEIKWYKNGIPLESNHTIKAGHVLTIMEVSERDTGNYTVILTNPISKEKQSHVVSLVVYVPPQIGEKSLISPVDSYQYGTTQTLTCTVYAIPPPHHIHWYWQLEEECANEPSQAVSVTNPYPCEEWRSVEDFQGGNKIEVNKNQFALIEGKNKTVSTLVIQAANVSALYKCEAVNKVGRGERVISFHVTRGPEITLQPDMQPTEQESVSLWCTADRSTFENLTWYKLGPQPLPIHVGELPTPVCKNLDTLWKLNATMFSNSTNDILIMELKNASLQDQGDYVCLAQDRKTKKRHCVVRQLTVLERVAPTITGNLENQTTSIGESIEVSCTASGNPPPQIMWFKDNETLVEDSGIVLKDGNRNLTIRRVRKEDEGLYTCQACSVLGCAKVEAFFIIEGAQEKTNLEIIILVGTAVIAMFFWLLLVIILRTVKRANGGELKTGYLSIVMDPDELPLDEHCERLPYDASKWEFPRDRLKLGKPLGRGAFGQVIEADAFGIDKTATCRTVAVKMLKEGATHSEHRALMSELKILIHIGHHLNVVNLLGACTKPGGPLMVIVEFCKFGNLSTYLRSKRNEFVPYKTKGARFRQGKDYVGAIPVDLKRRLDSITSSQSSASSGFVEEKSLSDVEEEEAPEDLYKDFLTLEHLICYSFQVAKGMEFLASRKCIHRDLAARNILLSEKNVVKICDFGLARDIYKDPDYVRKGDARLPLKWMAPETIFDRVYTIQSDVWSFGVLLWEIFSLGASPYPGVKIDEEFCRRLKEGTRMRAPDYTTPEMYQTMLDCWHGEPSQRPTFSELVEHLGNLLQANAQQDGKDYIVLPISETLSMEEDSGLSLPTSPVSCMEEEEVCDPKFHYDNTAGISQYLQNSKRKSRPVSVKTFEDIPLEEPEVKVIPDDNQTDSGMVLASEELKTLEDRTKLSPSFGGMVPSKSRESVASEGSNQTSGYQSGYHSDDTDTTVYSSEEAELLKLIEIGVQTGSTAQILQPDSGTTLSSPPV
Sequence of HER2 (P04626 23-1255): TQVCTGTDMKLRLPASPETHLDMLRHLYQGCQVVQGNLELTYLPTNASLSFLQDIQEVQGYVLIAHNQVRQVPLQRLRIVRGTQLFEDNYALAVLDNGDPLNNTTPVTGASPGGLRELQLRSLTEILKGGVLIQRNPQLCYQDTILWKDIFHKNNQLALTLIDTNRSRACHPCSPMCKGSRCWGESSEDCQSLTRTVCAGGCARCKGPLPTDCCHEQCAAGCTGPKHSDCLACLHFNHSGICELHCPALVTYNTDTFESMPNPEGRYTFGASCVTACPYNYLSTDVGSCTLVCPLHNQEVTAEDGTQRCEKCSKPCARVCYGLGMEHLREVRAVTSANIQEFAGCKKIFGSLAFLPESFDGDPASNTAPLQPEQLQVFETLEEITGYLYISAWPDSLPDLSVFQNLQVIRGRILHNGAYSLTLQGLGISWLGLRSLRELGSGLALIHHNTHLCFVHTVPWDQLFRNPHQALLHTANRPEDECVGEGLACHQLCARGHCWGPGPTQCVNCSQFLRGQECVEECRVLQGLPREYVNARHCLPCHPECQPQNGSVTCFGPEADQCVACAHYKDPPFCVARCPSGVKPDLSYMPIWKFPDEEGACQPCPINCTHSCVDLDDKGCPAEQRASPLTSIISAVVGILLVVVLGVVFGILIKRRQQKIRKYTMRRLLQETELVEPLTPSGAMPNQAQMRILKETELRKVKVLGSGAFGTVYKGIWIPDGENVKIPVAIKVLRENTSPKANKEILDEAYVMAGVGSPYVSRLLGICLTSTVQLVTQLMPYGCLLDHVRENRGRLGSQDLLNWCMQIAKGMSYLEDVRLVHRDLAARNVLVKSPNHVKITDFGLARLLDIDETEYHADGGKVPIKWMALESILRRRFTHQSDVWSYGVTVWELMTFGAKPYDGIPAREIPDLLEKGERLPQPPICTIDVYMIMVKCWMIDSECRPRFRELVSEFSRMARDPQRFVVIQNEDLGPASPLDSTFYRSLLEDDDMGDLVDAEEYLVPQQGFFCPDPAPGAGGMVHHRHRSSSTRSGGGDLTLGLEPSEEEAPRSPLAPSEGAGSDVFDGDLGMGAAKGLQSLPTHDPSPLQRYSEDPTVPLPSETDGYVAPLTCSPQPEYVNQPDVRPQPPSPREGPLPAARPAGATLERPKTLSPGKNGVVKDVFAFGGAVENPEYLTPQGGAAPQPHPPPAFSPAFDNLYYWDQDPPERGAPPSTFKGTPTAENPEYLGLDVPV

## O=C(/C=C/c1ccccc1)c1ccccc1 [Compound 4a, (E)-Chalcone]
[1]; HCT-116 and HeLa, read-out: IC50 values, range against HCT-116 and HeLa
  IC50: 6590 to 22600 nM
[1]; MDA-MB-231 and MCF-7, read-out: IC50 values, range against MDA-MB-231 and MCF-7
  IC50: 2080 to 13600 nM
[2]; 0.01 µM
  Inhibition (%) Aromatase: 19.87% and 20.56%
[2]; 0.1 µM
  Inhibition (%) Aromatase: 28.65% and 29.76%
[2]; 1 µM
  Inhibition (%) Aromatase: 63% and 62.76%
[2]; 10 µM
  Inhibition (%) Aromatase: 82.87% and 83.45%
[2]; 100 µM
  Inhibition (%) Aromatase: 92.23% and 94%
[2]; read-out: Inhibition (%) Aromatase, 0.01 µM
  inhibition at 0.01 µM: 20%
[2]; read-out: Inhibition (%) Aromatase, 0.1 µM
  inhibition at 0.1 µM: 29%
[2]; read-out: Inhibition (%) Aromatase, 1 µM
  inhibition at 1 µM: 64%
[2]; read-out: Inhibition (%) Aromatase, 10 µM
  inhibition at 10 µM: 83%
[2]; read-out: Inhibition (%) Aromatase, 100 µM
  inhibition at 100 µM: 93%
MCF-7; [3]
  Cell Proliferation MCF-7 %: 79%
MCF-7; mean ± SD of triplicate
  Cell Proliferation MCF-7 Cell Count: 14,553 ± 518
MCF-7; relative to control
  Reduction of growth/cell count (inhibition) in MCF-7: 21%
MCF-7a; [3]
  Cell Proliferation MCF-7a %: 102%
MCF-7a; mean ± SD of triplicate
  Cell Proliferation MCF-7a Cell Count: 21,155 ± 611
MCF-7a; relative to control
  Inhibition in MCF-7a: no inhibition
EGFR
  IC50: 367 ± 12 nM
EGFR; 0.01 µM, individual Data 1-3
  Inhibition (%) EGFR: 10.8% and 13.9%
EGFR; 0.1 µM, individual Data 1-3
  Inhibition (%) EGFR: 34.2% and 37.1%
EGFR; 1 µM, individual Data 1-3
  Inhibition (%) EGFR: 68.2% and 66.7%
EGFR; 10 µM, individual Data 1-3
  Inhibition (%) EGFR: 83.2% and 86.9%
EGFR; 100 µM, individual Data 1-3
  Inhibition (%) EGFR: 93.9% and 94.2%
EGFR; read-out: Inhibition (%) EGFR, 0.01 µM, individual Data 1-3
  inhibition at 0.01 µM: 12.3%
EGFR; read-out: Inhibition (%) EGFR, 0.1 µM, individual Data 1-3
  inhibition at 0.1 µM: 35.8%
EGFR; read-out: Inhibition (%) EGFR, 1 µM, individual Data 1-3
  inhibition at 1 µM: 69.9%
EGFR; read-out: Inhibition (%) EGFR, 10 µM, individual Data 1-3
  inhibition at 10 µM: 85.6%
EGFR; read-out: Inhibition (%) EGFR, 100 µM, individual Data 1-3
  inhibition at 100 µM: 95.1%
HER2
  IC50: 691 ± 27 nM
HER2; 0.01 µM, individual Data 1-3
  Inhibition (%) Her2: 10.6% and 14.2%
HER2; 0.1 µM, individual Data 1-3
  Inhibition (%) Her2: 21.8% and 24.9%
HER2; 1 µM, individual Data 1-3
  Inhibition (%) Her2: 60.9% and 59.5%
HER2; 10 µM, individual Data 1-3
  Inhibition (%) Her2: 78% and 81.2%
HER2; 100 µM, individual Data 1-3
  Inhibition (%) Her2: 89.9% and 93.1%
HER2; read-out: Inhibition (%) Her2, 0.01 µM, individual Data 1-3
  inhibition at 0.01 µM: 12.3%
HER2; read-out: Inhibition (%) Her2, 0.1 µM, individual Data 1-3
  inhibition at 0.1 µM: 23.8%
HER2; read-out: Inhibition (%) Her2, 1 µM, individual Data 1-3
  inhibition at 1 µM: 62.2%
HER2; read-out: Inhibition (%) Her2, 10 µM, individual Data 1-3
  inhibition at 10 µM: 79.1%
HER2; read-out: Inhibition (%) Her2, 100 µM, individual Data 1-3
  inhibition at 100 µM: 91%
CDK2
  IC50: 840 ± 26 nM
CDK2; 0.01 µM, individual Data 1-3
  Inhibition (%) CDK2: 9.7% and 12%
CDK2; 0.1 µM, individual Data 1-3
  Inhibition (%) CDK2: 25.6% and 28.78%
CDK2; 1 µM, individual Data 1-3
  Inhibition (%) CDK2: 53.8% and 52.78%
CDK2; 10 µM, individual Data 1-3
  Inhibition (%) CDK2: 72.98% and 76%
CDK2; 100 µM, individual Data 1-3
  Inhibition (%) CDK2: 88.7% and 92.7%
CDK2; read-out: Inhibition (%) CDK2, 0.01 µM, individual Data 1-3
  inhibition at 0.01 µM: 11.8%
CDK2; read-out: Inhibition (%) CDK2, 0.1 µM, individual Data 1-3
  inhibition at 0.1 µM: 27.7%
CDK2; read-out: Inhibition (%) CDK2, 1 µM, individual Data 1-3
  inhibition at 1 µM: 54%
CDK2; read-out: Inhibition (%) CDK2, 10 µM, individual Data 1-3
  inhibition at 10 µM: 74.1%
CDK2; read-out: Inhibition (%) CDK2, 100 µM, individual Data 1-3
  inhibition at 100 µM: 90.3%
VEGFR-2
  IC50: 1550 ± 53 nM
VEGFR-2; 0.01 µM, individual Data 1-3
  Inhibition (%) VEGFR2: 4.43% and 2.43% and 5.78%
VEGFR-2; 0.1 µM, individual Data 1-3
  Inhibition (%) VEGFR2: 19.78% and 23.4%
VEGFR-2; 1 µM, individual Data 1-3
  Inhibition (%) VEGFR2: 40.5% and 38.5%
VEGFR-2; 10 µM, individual Data 1-3
  Inhibition (%) VEGFR2: 69% and 76.6%
VEGFR-2; 100 µM, individual Data 1-3
  Inhibition (%) VEGFR2: 86.5% and 92.5%
VEGFR-2; read-out: Inhibition (%) VEGFR2, 0.1 µM, individual Data 1-3
  inhibition at 0.1 µM: 21.6%
VEGFR-2; read-out: Inhibition (%) VEGFR2, 1 µM, individual Data 1-3
  inhibition at 1 µM: 43.5%
VEGFR-2; read-out: Inhibition (%) VEGFR2, 10 µM, individual Data 1-3
  inhibition at 10 µM: 73.3%
VEGFR-2; read-out: Inhibition (%) VEGFR2, 100 µM, individual Data 1-3
  inhibition at 100 µM: 89.2%
